The record followed here is patent publication US7939526B2, “Sulfone substituted imidazo ring ethers” (3M Innovative Properties Company, priority 2003, dated 2011).

For orientation: melting point means the temperature of the solid-liquid transition. For `COCCc1nc2c(N)nc3ccccc3c2n1CCOCCS(C)(=O)=O` [Example 7, 2-(2-Methoxyethyl)-1-{2-[2-(methylsulfonyl)ethoxy]ethyl}-1H-imidazo[4,5-c]quinolin-4-amine], the melting point was in the range of 142 to 144 °C.
In the case of `CCOCc1nc2c(N)nc3c(c2n1CC(C)(C)OCCS(C)(=O)=O)CCCC3` [Example 28, 2-(Ethoxymethyl)-1-{2-methyl-2-[2-(methylsulfonyl)ethoxy]propyl}-6,7,8,9-tetrahydro-1H-imidazo[4,5-c]quinolin-4-amine] it was 150 to 153 °C.
In the case of `CCc1nc2c(N)nc3ccccc3c2n1CCOCCS(C)(=O)=O` [Example 5, 2-Ethyl-1-{2-[2-(methylsulfonyl)ethoxy]ethyl}-1H-imidazo[4,5-c]quinolin-4-amine] it was 160 to 163 °C.
